{"source": "patent US6441047B2", "about": "“Combination therapy for treating glaucoma” (Alcon Manufacturing Ltd.., priority 1995, dated 2002)", "origin": "cited, not measured here", "key": {"[1]": {"conditions": "Drugs of the Future, 1994, 19, 905-909"}, "[2]": {"conditions": "Drugs of the Future, 1994, 19, 905-909", "remark": "listed apart in the source"}, "[3]": {"conditions": "Drugs of the Future, 1994, 19, 905-909", "remark": "listed apart in the source"}}}
{"smiles": "OC(CN1CCC(Cc2ccc(F)cc2)CC1)c1ccc(Cl)cc1", "note": "(stereo not drawn) [eliprodil]", "values": [{"measurement": "blood-brain barrier penetration", "setting": "[1]", "result": "effectively crosses the blood-brain barrier"}, {"measurement": "incidence of adverse effects upon administration", "setting": "[2]", "result": "low incidence of adverse effects"}, {"measurement": "oral bioavailability", "setting": "[3]", "result": "orally bioavailable"}]}
